Experiments:
[1] = mn = molality of the nth substance listed, in mol/kg; conditions: 101.33 kPa, Liquid, m2 = 0; for viscosity: Capillary tube (Ostwald / Ubbelohde) method; for mass density: Vibrating tube method
[2] = wn = mass fraction of the nth substance listed; conditions: 101.33 kPa, Liquid, w1 = 0.009; for viscosity: Capillary tube (Ostwald / Ubbelohde) method; for mass density: Vibrating tube method
[3] = 101.33 kPa, Liquid; for viscosity: Capillary tube (Ostwald / Ubbelohde) method; for mass density: Vibrating tube method

O [water] + CO/N=C(\C(=O)N[C@@H]1C(=O)N2C(C(=O)O)=C(C[N+]3(C)CCCC3)CS[C@H]12)c1csc(N)n1.Cl.[Cl-]
[1]
Conditions	mass density [kg/m3]	viscosity [mPa·s]
278.15 K	999.96	1.521
283.15 K	999.7	1.307
288.15 K	–	1.135
293.15 K	–	1.002
298.15 K	–	0.8903
303.15 K	–	0.7977
308.15 K	–	0.719
313.15 K	–	0.6532

[Cl-].[Na+] [sodium chloride] + O
[2]
Conditions	mass density [kg/m3]	viscosity [mPa·s]
278.15 K	1006.09	1.53
283.15 K	1005.64	1.321
288.15 K	1005.07	1.154
293.15 K	1004.14	1.015
298.15 K	1002.96	0.9068
303.15 K	1001.47	0.8105
308.15 K	999.75	0.7363
313.15 K	997.82	0.6641

O [water]
[3]
Conditions	mass density [kg/m3]	viscosity [mPa·s]
278.15 K	999.96	1.521
283.15 K	999.7	1.307
288.15 K	–	1.135
293.15 K	–	1.002
298.15 K	–	0.8903
303.15 K	–	0.7977
308.15 K	–	0.719
313.15 K	–	0.6532
